From patent publication US10428014B2, “Base generator, base-reactive composition containing said base generator, and base generation method” (FUJIFILM Wako Pure Chemical Corporation, priority 2013, dated 2019) come the findings set out here.

One series is described as follows: Heat resistance test (TG-DTA, initiation temperature of 5% weight decrease). The class given is physicochemical. Particulars: 10 mg, 30° C. to 500° C., 10° C./min.
“1,2-dicyclohexyl-4,4,5,5-tetramethylbiguanidium 2-(9-oxoxanthene-2-yl)propionate [formula (4)]” yielded a Decomposition initiation temperature of 199 °C. “1,2-dicyclohexyl-4,4,5,5-tetramethylbiguanidium 8(7H)-ethylidene-4-methoxy-5,6-dihydronaphthalene-1-carboxylate [formula (6)]” displayed a Decomposition initiation temperature of 205 °C. Compound “1,2-diisopropyl-4,4,5,5-tetramethylbiguanidium 2-(9-oxoxanthene-2-yl)propionate [formula (7)]” gave a Decomposition initiation temperature of 200 °C. On to “1,2-diisopropyl-4,4,5,5-tetramethylbiguanidium 8(7H)-ethylidene-4-methoxy-5,6-dihydronaphthalene-1-carboxylate [formula (5)]”, for which the Decomposition initiation temperature came to 204 °C. The compound “1,2-diisopropyl-4,4,5,5-tetramethylbiguanidium N-phthaloylglycine [formula (8)]” showed a Decomposition initiation temperature of 206 °C. In the case of `CC(C(=O)O)c1cccc(C(=O)c2ccccc2)c1` (stereo not shown) [formula (101), guanidium 2-(3-benzoylphenyl)propionate, reference compound], the Decomposition initiation temperature is 161 °C.

A further series is described as follows: Exposure curing test using bisphenol A-type diglycidyl ether. Particulars: 10 mg compound, 100 mg jER 828, 50 mg KarenzMT PE1.
As for `CC(C(=O)O)c1cccc(C(=O)c2ccccc2)c1` (stereo not shown) [formula (101), guanidium 2-(3-benzoylphenyl)propionate, reference compound], the “Dissolution into the mixed solution of the bisphenol A-type diglycidyl ether oligomer and pentaerythritol tetrakis(3-mercaptobutyrate)” value is “did not dissolve”.
